Data as given in the OPERA property sets (Mansouri et al. 2018).

| SMILES | logP |
| --- | --- |
| O=C(Nc1ccc2nn(C3CCCC3)nc2c1)c1ccccc1 | 3.85 |
| O=C(CCl)Nc1ccc2nn(C3CCCC3)nc2c1 | 2.78 |
| CC(C)(C)C(=O)Nc1ccc2nn(C3CCCC3)nc2c1 | 3.4 |
| O=C(Nc1ccc2nn(C3CCCC3)nc2c1)C(Cl)(Cl)Cl | 4.12 |
| CC(=O)Nc1ccc2nn(C3CCCC3)nc2c1 | 2.45 |
| Nc1ccc(S(=O)(=O)Nc2ccc3nn(C4CCCC4)nc3c2)cc1 | 2.48 |
| CCOC(=O)Nc1ccc2nn(C3CCCC3)nc2c1 | 3.43 |
| COc1cc(C(=O)Nc2ccc3nn(C4CCCC4)nc3c2)cc(OC)c1OC | 3.87 |
| O=C(Nc1ccc2nn(C3CCCC3)nc2c1)c1ccc(Cl)c(Cl)c1 | 5.32 |
| O=C(Nc1ccc2nn(C3CCCC3)nc2c1)c1ccc(Cl)cc1 | 4.11 |
| O=C(Nc1ccc2nn(C3CCCC3)nc2c1)c1ccc([N+](=O)[O-])cc1 | 3.75 |
| Cc1ccc(S(=O)(=O)Nc2ccc3nn(C4CCCC4)nc3c2)cc1 | 3.91 |
| O=C(Nc1ccc2nn(C3CCCC3)nc2c1)c1ccc(C(F)(F)F)cc1 | 4.95 |
| CS(=O)(=O)Nc1ccc2nn(C3CCCC3)nc2c1 | 2.44 |
| CC(C)COC(=O)Nc1ccc2nn(C3CCCC3)nc2c1 | 4.28 |
| O=C(Nc1ccc2nn(C3CCCC3)nc2c1)C(Cl)Cl | 3.4 |
| O=[N+]([O-])c1ccc(S(=O)(=O)Nc2ccc3nn(C4CCCC4)nc3c2)cc1 | 3.82 |
